Like-named read-outs stand apart in the source and are kept apart here. Non-standard residues stand in square brackets, D forms with d. Residues, ends and D or L forms follow the SMILES beside them. Dmt = Cc1cc(O)cc(C)c1C[C@H](N)C(=O)O; Tic = O=C(O)[C@@H]1Cc2ccccc2CN1; βAla = NCCC(=O)O; Sar = CNCC(=O)O
Tests used:
[1] = target: 125I-IDAPP binding sites in C57/Bl6 brain homogenates (Mus musculus, UniProt P42866)
[2] = target: 3H-DAMGO binding sites in C57 brain tissue (Mus musculus, UniProt P42866)
MOR-1 = MOR-1 (Mus musculus, UniProt P42866); test: Competition of 3H-DAMGO binding in CHO cells expressing MOR-1
MOR-1 variants (Oprm1) [3] = conditions: mouse, in vivo; cited from earlier work
mKOR = mKOR (Mus musculus, UniProt P33534); test: 35S-GTPγS binding in mKOR-CHO membranes; conditions: read-out: Max stimulation (% over basal)
CD-1 mice = test: Cross tolerance in morphine pelleted mice, tail flick analgesia; assay type: in vivo, mouse; conditions: for analgesic ED50: i.c.v., 72 hr
mDOR = mDOR (Mus musculus, UniProt P32300); test: 35S-GTPγS binding in mDOR-CHO membranes; conditions: read-out: Max stimulation (% over basal)
[4] = tested on: C57Bl/6 wild type (WT) and exon 11 KO (E11 KO) mice; test: Radiant heat tail flick analgesia in wild type and exon 11 KO mice; assay type: in vivo, mouse; conditions: for analgesic ED50: tail flick
[5] = target: spinal cord membranes (WT, E11 KO) (Mus musculus, UniProt P42866); test: 35S-GTPγS binding in spinal cord membranes
MOR-1 variants (Oprm1) [6] = assay type: in vivo, mouse; conditions: knockout and/or antisense models; Figs. 2,3,4
[7] = tested on: brain membranes (WT, E11 KO, E1/E11 KO); test: 35S-GTPγS binding in brain membranes
mMOR = mMOR (Mus musculus, UniProt P42866); test: 35S-GTPγS binding in mMOR-CHO membranes; conditions: read-out: Max stimulation (% over basal)
mMOR-1 = mMOR-1 (Mus musculus, UniProt P42866); test: Competition binding versus 125I-IBNtxA in mMOR-CHO membranes
mKOR-1 = mKOR-1 (Mus musculus, UniProt P33534); test: Competition binding versus 125I-IBNtxA in mKOR-CHO membranes
mDOR-1 = mDOR-1 (Mus musculus, UniProt P32300); test: Competition binding versus 125I-IBNtxA in mDOR-CHO membranes
6TM/E11 = 6TM/E11 (Mus musculus, UniProt P42866); test: Competition binding versus 125I-IBNtxA at the 6TM-containing
[8] = tested on: E1/E11 KO and E11 KO mice; conditions: cited from earlier work
[9] = tested on: C57Bl/6 wild type (WT) and exon 11 KO (E11 KO) mice; conditions: cited from earlier work
[10] = 0.1 nM 125I-IDAPP, C57/Bl6 brain homogenates, no blockers
[11] = E11 KO mice, supraspinal (i.c.v.; IDAPP also i.t.)

## C[C@@H](O)[C@H](NC(=O)[C@H]1NC(=O)[C@H]([C@@H](C)O)NC(=O)[C@H](CCCN=C(N)N)NC(=O)[C@@H](Cc2c[nH]c3ccccc23)NC(=O)[C@H](Cc2ccc(O)cc2)NC(=O)[C@@H](NC(=O)[C@H](N)Cc2ccccc2)CSSC1(C)C)C(N)=O [CTAP, D-Phe-Cys-Tyr-D-Trp-Arg-Thr-Pen-Thr-NH2]
[1]
  Ki: 1.1 ± 0.3 nM
[2]
  IC50: 4.1 ± 0.2 nM
MOR-1
  IC50: 4.8 ± 0.4 nM

## Clc1cccc(Cl)c1N=C1NCCN1 [Clonidine]
MOR-1 variants (Oprm1) [3]
  MOR-1 Variants required for analgesia: 6TM

## C[C@@H](NC(=O)[C@@H](N)Cc1ccc(O)cc1)C(=O)NCC(=O)N(C)[C@@H](Cc1ccccc1)C(=O)NCCO [DAMGO, [D-Ala^2,N-MePhe^4,Gly(ol)^5]-enkephalin]
mKOR
  Emax: -16 ± 8%
[1]; [10]
  Hill Slope: −0.9 ± 0.1
CD-1 mice; morphine pellet (75 mg free base) CD-1 mice
  analgesic ED50: 1.5 ± 0.47 µg
CD-1 mice; morphine pelleted versus placebo
  analgesia in morphine pelleted mice (cross tolerance): cross tolerant with morphine
CD-1 mice; placebo pellet CD-1 mice
  analgesic ED50: 0.04 ± 0.02 µg
mDOR
  Emax: -2 ± 7%
[4]; E11 KO mice, i.c.v.
  analgesic ED50: 0.23 µg
[4]; E11 KO mice, i.t.
  analgesic ED50: 0.27 µg
[4]; E11 KO mice, spinal (i.t.)
  analgesic activity in E11 KO mice: still elicited a full response
[4]; [11]
  analgesic activity in E11 KO mice: retained full analgesic activity
[4]; WT C57Bl/6 mice, i.c.v.
  analgesic ED50: 0.13 µg
[4]; WT C57Bl/6 mice, i.t.
  analgesic ED50: 0.02 µg
[5]; read-out: Max stimulation (% over basal), spinal cord, E11 KO
  Emax: 7 ± 4%
[5]; read-out: Max stimulation (% over basal), spinal cord, WT
  Emax: 11 ± 2%
MOR-1 variants (Oprm1) [6]
  MOR-1 Variants required for analgesia: 7TM
[7]; E1/E11 KO
  Max stimulation (% over basal): −6 ± 1 % over basal
[7]; E11 KO
  EC50: 220 ± 13 nM
  Max stimulation (% over basal): 19 ± 6 % over basal
[7]; WT
  EC50: 190 ± 8 nM
  Max stimulation (% over basal): 15 ± 2 % over basal
mMOR
  Emax: 396 ± 21%

## CC[C@H](C)[C@H](NC(=O)[C@H](Cc1ccccc1)NC(=O)[C@H](Cc1ccccc1)NC(=O)[C@@H](C)NC(=O)[C@@H](N)Cc1c(C)cc(O)cc1C)C(N)=O [DAPPI, Dmt-D-Ala-Phe-Phe-Ile-NH2] (H-[Dmt][dA]FFI-NH2)
mMOR-1
  Ki: 0.3 ± 0.1 nM
mKOR-1
  Ki: 7 ± 0.4 nM
mDOR-1
  Ki: 0.3 ± 0.2 nM

## C[C@@H](NC(=O)[C@@H](N)Cc1ccc(O)cc1)C(=O)N[C@@H](Cc1ccccc1)C(=O)NCC(=O)N[C@@H](Cc1ccc(O)cc1)C(=O)N1CCC[C@H]1C(=O)N[C@@H](CO)C(N)=O [Dermorphin, Tyr-D-Ala-Phe-Gly-Tyr-Pro-Ser-NH2]
6TM/E11
  Ki: > 500 nM
mMOR-1
  Ki: 4 ± 0.5 nM

## Cc1cccc([C@H](C)c2cnc[nH]2)c1C [Dexmedetomidine]
MOR-1 variants (Oprm1) [3]
  MOR-1 Variants required for analgesia: 6TM

## NC(=O)[C@H](Cc1ccccc1)NC(=O)[C@H](Cc1c[nH]c2ccccc12)NC(=O)[C@@H]1CCCN1C(=O)[C@@H](N)Cc1ccc(O)cc1 [Endomorphin 1, Tyr-Pro-Trp-Phe-NH2]
[1]
  Hill Slope: −0.7 ± 0.1
mDOR
  Emax: -3 ± 1%
[4]; [11]
  analgesic activity in E11 KO mice: eliminated the analgesic response
[4]; WT C57Bl/6 mice, i.c.v.
  analgesic ED50: 3.39 µg
MOR-1 variants (Oprm1) [6]
  MOR-1 Variants required for analgesia: 7TM + 6TM
[7]; E1/E11 KO
  Max stimulation (% over basal): −5 ± 3 % over basal
[7]; E11 KO
  EC50: 17 ± 7 nM
  Max stimulation (% over basal): 23 ± 1 % over basal
[7]; WT
  EC50: 222 ± 31 nM
  Max stimulation (% over basal): 39 ± 2 % over basal

## NC(=O)[C@H](Cc1ccccc1)NC(=O)[C@H](Cc1ccccc1)NC(=O)[C@@H]1CCCN1C(=O)[C@@H](N)Cc1ccc(O)cc1 [Endomorphin 2, Tyr-Pro-Phe-Phe-NH2]
mDOR
  Emax: -3 ± 2%
[4]; [11]
  analgesic activity in E11 KO mice: eliminated the analgesic response
[4]; WT C57Bl/6 mice, i.c.v.
  analgesic ED50: 1.14 µg
MOR-1 variants (Oprm1) [6]
  MOR-1 Variants required for analgesia: 7TM + 6TM
[7]; E1/E11 KO
  Max stimulation (% over basal): 1 ± 1 % over basal
[7]; E11 KO
  EC50: 103 ± 8 nM
  Max stimulation (% over basal): 24 ± 2 % over basal
[7]; WT
  EC50: 151 ± 43 nM
  Max stimulation (% over basal): 35 ± 1 % over basal

## O=C(N[C@@H]1CC[C@@]2(O)[C@H]3Cc4ccc(O)c5c4[C@@]2(CCN3CC2CC2)[C@H]1O5)c1cccc(I)c1 [IBNtxA, 3-iodobenzoyl-6β-naltrexamide]
MOR-1 variants (Oprm1) [3]
  MOR-1 Variants required for analgesia: 6TM
[8]
  rescue of analgesia by mMOR-1G lentivirus in E1/E11 KO mice: able to rescue

## C[C@H]1[C@H]2C(=O)c3ccc(O)cc3[C@@]1(C)CCN2CC1CC1 [Ketocyclazocine]
MOR-1 variants (Oprm1) [3]
  MOR-1 Variants required for analgesia: 6TM

## CN1CC[C@]23c4c5ccc(O)c4O[C@H]2[C@@H](O[C@@H]2O[C@H](C(=O)O)[C@@H](O)[C@H](O)[C@H]2O)C=C[C@H]3[C@H]1C5 [M6G]
[1]
  Hill Slope: −0.6 ± 0.1
  Ki: 0.7 ± 0.3 nM

## CN1CC[C@]23c4c5ccc(O)c4O[C@H]2[C@@H](O)C=C[C@H]3[C@H]1C5 [Morphine]
[9]
  analgesic activity in E11 KO mice: maintaining full analgesic activity

## Oc1ccc2c3c1O[C@H]1c4[nH]c5ccccc5c4C[C@@]4(O)[C@@H](C2)N(CC2CC2)CC[C@]314 [Naltrindole]
[1]; [10]
  Ki: > 1000 nM

## Oc1ccc2c3c1O[C@H]1c4[nH]c5c(c4C[C@@]4(O)[C@@H](C2)N(CC2CC2)CC[C@]314)C[C@@]1(O)[C@H]2Cc3ccc(O)c4c3[C@@]1(CCN2CC1CC1)[C@H]5O4 [NorBNI]
[1]; [10]
  Ki: > 1000 nM

## C=CCN1C[C@H](C)N([C@H](c2ccc(C(=O)N(CC)CC)cc2)c2cccc(OC)c2)C[C@H]1C [SNC80]
[1]
  Ki: > 1000 nM
MOR-1 variants (Oprm1) [3]
  MOR-1 Variants required for analgesia: 7TM + 6TM

## COC(=O)[C@@H]1C[C@H](OC(C)=O)C(=O)[C@H]2[C@@]1(C)CC[C@H]1C(=O)O[C@H](c3ccoc3)C[C@]21C [Salvinorin A]
MOR-1 variants (Oprm1) [3]
  MOR-1 Variants required for analgesia: 6TM

## C[C@@H](NC(=O)[C@@H](N)Cc1ccc(O)cc1)C(=O)N[C@@H](Cc1ccccc1)C(=O)NCCC(N)=O [TAPA, Tyr-D-Ala-Phe-βAla-NH2] (H-Y[dA]F[βAla]-NH2)
6TM/E11
  Ki: 40 ± 7 nM
mMOR-1
  Ki: 11 ± 0.3 nM
mKOR-1
  Ki: > 500 nM
mDOR-1
  Ki: 48 ± 1 nM

## C[C@@H](NC(=O)[C@@H](N)Cc1ccc(O)cc1)C(=O)N[C@@H](Cc1ccccc1)C(=O)N[C@@H](Cc1ccccc1)C(N)=O [TAPP, Tyr-D-Ala-Phe-Phe-NH2] (H-Y[dA]FF-NH2)
6TM/E11
  Ki: 130 ± 16 nM
mMOR-1
  Ki: 3 ± 0.2 nM
mKOR-1
  Ki: > 500 nM
mDOR-1
  Ki: 3 ± 0.1 nM

## CC[C@H](C)[C@H](NC(=O)[C@H](Cc1ccccc1)NC(=O)[C@H](Cc1ccccc1)NC(=O)[C@@H](C)NC(=O)[C@@H](N)Cc1ccc(O)cc1)C(N)=O [TAPPI, Tyr-D-Ala-Phe-Phe-Ile-NH2] (H-Y[dA]FFI-NH2)
6TM/E11
  Ki: 100 ± 10 nM
mMOR-1
  Ki: 0.2 ± 0.2 nM
mDOR-1
  Ki: 6 ± 0.1 nM

## CC(C)[C@H](NC(=O)[C@H](Cc1ccccc1)NC(=O)[C@H](Cc1ccccc1)NC(=O)[C@@H](C)NC(=O)[C@@H](N)Cc1ccc(O)cc1)C(N)=O [TAPPV, Tyr-D-Ala-Phe-Phe-Val-NH2] (H-Y[dA]FFV-NH2)
6TM/E11
  Ki: > 500 nM
mMOR-1
  Ki: > 500 nM

## C[C@@H](NC(=O)[C@@H](N)Cc1ccc(O)cc1)C(=O)N[C@@H](Cc1ccccc1)C(=O)N(C)CC(N)=O [TAPS, Tyr-D-Ala-Phe-Sar-NH2] (H-Y[dA]F[Sar]-NH2)
6TM/E11
  Ki: 50 ± 8 nM
mMOR-1
  Ki: 6 ± 0.7 nM
mKOR-1
  Ki: > 500 nM
mDOR-1
  Ki: 35 ± 2 nM

## N[C@@H](Cc1ccc(O)cc1)C(=O)N1Cc2ccccc2C[C@H]1C(=O)N[C@@H](Cc1ccccc1)C(=O)N[C@@H](Cc1ccccc1)C(=O)O [TIPP, Tyr-Tic-Phe-Phe-OH] (H-Y[Tic]FF-OH)
6TM/E11
  Ki: 163 ± 12 nM
mMOR-1
  Ki: > 500 nM
mKOR-1
  Ki: > 500 nM

## DPDPE
MOR-1 variants (Oprm1) [3]
  MOR-1 Variants required for analgesia: 7TM + 6TM
